Results: ChEMBL document CHEMBL6078624, “Structure-based discovery of a 4,5-Dihydropyrazole-cored PET ligand for imaging of receptor-interacting serine/threonine-protein kinase 1 (RIPK1) in the brain” (Eur J Med Chem, 2024)

Experiments:
[1] = Drug uptake in macaque brain measured at 5 mins by micro-PET imaging analysis; type: ADME, tissue-based; conditions: macaca, in vivo
[2] = Inhibition of TSZ-induced necroptosis in human HT-29 cells by CellTiter-Glo luminescent cell viability assay

SUVmax [1] | Structure (SMILES) | EC50 [2]
~ 3.7 | CC(C)(C)C(=O)N1N=CC[C@H]1c1cccc([11CH3])c1 | –
– | O=C(c1ccccn1)N1CCC(C(=O)N2N=CCC2c2cc(F)cc(F)c2)CC1 (stereo not given) | 47.7 nM
– | O=C(c1ccccn1)N1CCC(C(=O)N2N=CCC2c2cccc(F)c2)CC1 (stereo not given) | 68.2 nM
– | O=C(c1cccc(F)n1)N1CCC(C(=O)N2N=CCC2c2cccc(F)c2)CC1 (stereo not given) | 98.3 nM
– | O=C(c1cccc(F)n1)N1CCC(C(=O)N2N=CCC2c2ccccc2)CC1 (stereo not given) | 242 nM
